Series [1] can be described thus: Human Hepatocyte Stability Assay. The series is classed as in vitro ADME. To be noted: human hepatocytes, 37° C.; read-out: Hep (human) (t½ min). As for the experimental part: (§1) (v) Mouse and Human Hepatocyte Stability Assays
(§2) A hepatocyte stability assay is a laboratory-based method used to determine the metabolic stability of a compound in hepatocytes (liver cells). This assay provides valuable information about how quickly a drug is metabolized in the liver and can be used to assess its potential effectiveness and safety in drug discovery.
(§3) In the assay, cither human or mouse hepatocytes are incubated with the test compound at a controlled temperature of 37° C., for different time periods (e.g., 5, 15, 30, 60, and 120 minutes). At each time point during the incubation, samples are taken, the reaction is terminated, and the amount of test compound remaining analyzed using LC-MS/MS to monitor the disappearance of the test compound over time (Gradient). […] See, e.g., Coe et al., Methods in Pharmacology & Toxicology (2008) 151.

Another series concerns the target T1, human NLRP3 (Homo sapiens, UniProt Q96P20).
T1 construct: Human whole blood is drawn from healthy volunteers after obtaining written informed consent; from tissue
In words: Human Whole Blood (hWB) NLRP3 Assay. Type of series: cell-based. As to conditions: LPS priming, ATP activation, IL-1β levels. The procedure:
(ii) Human Whole Blood (hWB) NLRP3 Assay
Human whole blood is drawn from healthy volunteers after obtaining written informed consent. Heparin lithium coated tubes are used to collect blood from volunteers. Blood samples are distributed on 96 well plates using 90 μl per well. Priming is performed by adding 5 μl of LPS (026: B6; Sigma L-2654) at a final concentration of 1 μg/ml for 4.5 hours in a humidified incubator with 37° C. 5% CO2. Thirty minutes prior to NLRP3 activation, 5 μl of a 20× compound solution or vehicle (2% dimethylsulfoxide (DMSO)) is added to each well and plates were incubated on a shaker (450 rpm) in a humidified incubator with 37° C., 5% CO2. Activation is then performed by adding 3.3 μl of a 31× ATP solution per well. At the end of the 30 minutes stimulation, the plates are centrifuged (800 g, 10 min, room temperature) and the plasma from each well is frozen at −80° C. IL-1β levels in the supernatant were analyzed using a mesoscale discovery assay (MSD K151TUK) according to the manufacturers’ instructions.

Series [2] is described as follows: Brain Levels (Kp and Kpu,u). The series is classed as in vivo, CDI mice. To be noted: CDI, mouse, brain (whole brain homogenate) relative to plasma, po, 20 mg/kg; for Kpu,u: Kp corrected with mouse plasma protein binding and mouse brain homogenates binding, 20 mpk PO, read-out: Kpu,u; for Kp at 24 h: mice dosed at 20 mpk PO, whole brain AUC over 24 h divided by plasma AUC. As for the experimental part: (iv) Brain Levels (Kp and Kpu,u)—NLRP3
The in vivo total brain to plasma ratio was assessed in CDI mice after oral administration of the compound. Blood was collected at several timepoints up to 24 h, and transferred into plastic micro centrifuge tubes with EDTA-K2 as anticoagulant. Blood samples were centrifuged at 4000 g for 5 minutes at 4° C., to obtain plasma, then immediately frozen and stored at −75±15° C., prior to analysis. Animals were terminally anaesthetized with a rising concentration of CO2 gas at about 1 minute. At selected timepoints, whole brains were removed from the skull, rinsed in cold PBS to remove blood, dried with clean gauze, then frozen in liquid nitrogen and kept at −75±15° C. before analysis. At the time of analysis, brain samples were homogenized with PBS by tissue weight (g) to PBS volume (mL) ratio 1:3.
Plasma and brain drug levels were quantified by LC/MS/MS on an AB Sciex Triple Quad 5500+instrument, after separation on a HALO 160 A ES-C18, 2.7 μm 2.1×50 mm column. Quantitation was performed using a calibration curve prepared in blank plasma or blank brain homogenate. The software WinNonlin (Phoenix™) was used for pharmacokinetic analysis from the concentrations versus time data, including the AUCinf and AUClast. The Kp ratio (total brain concentration over total plasma concentration) was calculated as (AUCtot,br)/(AUCtot,pl).
The unbound brain exposure was assessed as Kpuu, which is the free brain/free plasma concentration ratio (Cu,bt/Cu,pl). The Cu,br/Cu,pl ratios were obtained from in vivo total brain to plasma ratios (Ctot,br/Ctot,pl) by using in vitro determined Fu,br and Fu,pl.
Plasma protein binding and brain homogenate protein binding were measured by equilibrium dialysis in a HTDialysis plate. The dialysis membranes were soaked in ultrapure water for 60 minutes to separate strips, then in 20% ethanol for 20 minutes, finally in dialysis buffer for 20 minutes. The dialysis set up was assembled according to the manufacturer's instruction. Each cell received 150 μL of plasma or brain homogenate spiked with 1 mM of compound, and dialyzed against an equal volume of dialysis buffer (PBS). The dialysis plate was sealed and incubated in an incubator at 37° C. with 5% CO2 at 100 rpm for 6 hours. At the end of incubation, compound concentration was measured in both chambers by LC-MS/MS on a Triple Quad™ 5500 from AB Inc after separation on a XSelect Hss T3.2.5μ (2.1×30 mm) column. Free fraction (Fu) was calculated as (Peak Area Ratio buffer chamber/Peak Area Ratio plasma chamber). Kpuu=(AUCtot,br×Fu,br)/([…])
The Kpu,u was then calculated upon correcting this kp value with mouse plasma protein binding and mouse brain homogenates binding.
A Kpu,u value >0.3 is considered brain penetrant, and a Kpu,u value ≤0.3 is not considered brain penetrant. When the Kpu,u value is not determined, the Kp value may be useful as a metric of potential brain penetrance if the Kp value is >0.3.

Series [3] in a line: Mouse Hepatocyte Stability Assay. Type of series: in vitro ADME. To be noted: mouse hepatocytes, 37° C.; read-out: Hep (mouse) (t½ min). As for the experimental part:
as §1, §2, §3

Series [4] in a line: Solubility Protocol in Phosphate Buffered Saline (PBS). Type of series: physicochemical. To be noted: kinetic solubility, PBS pH 7.4, 2 hours at room temperature; for solubility kinetic at 2 h: phosphate buffered saline (PBS), 18 °C, aqueous buffer, kinetic from dmso stock. As for the experimental part:
(vi) Solubility Protocol in Phosphate Buffered Saline (PBS)
The kinetic solubility of test compounds and control compounds was measured in commercial phosphate buffered saline (PBS), pH 7.4 (Wisent, Canada).
Briefly, a stock solution (20 mM DMSO for controls, and 10 mM DMSO for test compounds) was combined with PBS buffer to reach a targeted concentration of 400 μM for controls and 200 μM for test compounds. The spiked-PBS mixtures were then agitated on a VX-2500 multi-tube vortexer (VWR) for 2 hours at room temperature (18° C.). Following agitation, the samples were filtered on a glass fiber filter (1 μm) and the eluates were diluted 400-fold with a mixture of acetonitrile:water (1:1). Solubility determination was then performed against one standard sample prepared in high organic content at the expected top concentration. The lower limit of quantification was arbitrarily set at 1 μM (400-fold dilution of the top concentration) for assay controls, and 0.5 μM for test compounds. On each experimental run, nicardipine and imipramine were assessed as reference compounds for low and high solubility, respectively. All samples were assessed in triplicate and analyzed by LC-MS/MS (using a CTC PAL autosampler, Thermo Accela UPLC, and a Thermo Quantum mass spectrometer) using electrospray ionization against standards prepared in the same matrix

As usually defined, the IC50 is the concentration needed to halve the response being measured. Higher therefore signals weaker potency in that assay. In general, Kp refers to tissue or fluid exposure divided by exposure in the circulation. Broadly, the solubility (kinetic) is the concentration staying in solution when a stock, usually in DMSO, is diluted into the medium.

In brackets after ≈: the same amount, converted by molar mass.

T1 sequence (Q96P20 whole entry): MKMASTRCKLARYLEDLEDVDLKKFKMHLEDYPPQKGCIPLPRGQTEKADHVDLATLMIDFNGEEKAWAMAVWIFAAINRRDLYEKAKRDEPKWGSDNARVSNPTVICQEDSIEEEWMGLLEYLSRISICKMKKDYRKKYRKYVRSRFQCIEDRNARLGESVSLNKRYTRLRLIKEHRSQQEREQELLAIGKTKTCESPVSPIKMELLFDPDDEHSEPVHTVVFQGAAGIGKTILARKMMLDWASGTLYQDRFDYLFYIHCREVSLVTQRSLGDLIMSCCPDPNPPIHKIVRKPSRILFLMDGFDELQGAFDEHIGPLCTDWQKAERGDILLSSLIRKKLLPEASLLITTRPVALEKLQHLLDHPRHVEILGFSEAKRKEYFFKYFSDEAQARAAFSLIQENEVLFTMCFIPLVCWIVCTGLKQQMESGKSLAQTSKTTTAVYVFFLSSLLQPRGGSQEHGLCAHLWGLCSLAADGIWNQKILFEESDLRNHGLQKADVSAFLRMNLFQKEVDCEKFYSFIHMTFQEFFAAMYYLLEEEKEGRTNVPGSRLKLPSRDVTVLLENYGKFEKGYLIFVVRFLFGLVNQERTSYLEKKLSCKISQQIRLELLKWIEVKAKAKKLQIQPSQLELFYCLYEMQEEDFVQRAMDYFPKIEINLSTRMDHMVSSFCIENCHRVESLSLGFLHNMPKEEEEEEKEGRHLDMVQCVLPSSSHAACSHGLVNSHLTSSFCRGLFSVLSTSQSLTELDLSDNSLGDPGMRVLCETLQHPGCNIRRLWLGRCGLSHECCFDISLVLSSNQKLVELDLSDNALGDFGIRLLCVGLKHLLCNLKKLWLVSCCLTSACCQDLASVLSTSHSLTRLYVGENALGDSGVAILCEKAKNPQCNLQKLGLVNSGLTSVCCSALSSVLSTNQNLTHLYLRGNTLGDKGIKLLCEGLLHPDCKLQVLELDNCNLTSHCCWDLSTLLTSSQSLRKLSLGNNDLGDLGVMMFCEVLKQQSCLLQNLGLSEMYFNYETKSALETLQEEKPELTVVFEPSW

As for `Oc1cc(C(F)(F)F)ccc1-c1nnc(N[C@H]2[C@@H]3CC[C@H]2COC3)c2cnccc12` [Compound 13A, 2-(4-(((1R,5S,8s)-3-oxabicyclo[3.2.1]octan-8-yl)amino)pyrido[3,4-d]pyridazin-1-yl)-5-(trifluoromethyl)phenol], the half-life in series [1] was found to be 290 min. The same molecule registered an IC50 at human NLRP3 of 0.34 µM. In addition, in series [2], the Kpu,u is 0.08 and the Kp at 24 h came out at 0.1. Further, in series [3], the half-life was 100 min. In addition, in series [4], the “Sol (PBS)” value is 1.4 µM and the solubility (kinetic) at 2 h turned out to be 1.4 µM (≈ 0.583 µg/mL).

`Oc1cc(C(F)F)ccc1-c1nnc(N[C@H]2[C@@H]3CC[C@H]2COC3)c2cnccc12` [Compound 14A, 2-(4-(((1R,5S,8s)-3-oxabicyclo[3.2.1]octan-8-yl)amino)pyrido[3,4-d]pyridazin-1-yl)-5-(difluoromethyl)phenol]: the half-life in series [1] was over 480 min. The IC50 at human NLRP3 was determined as 0.2 µM. Also, in series [2], the Kpu,u was 0.2 and the Kp at 24 h was 0.37. Moreover, in series [3], the half-life stood at 120 min. Besides, in series [4], the “Sol (PBS)” value worked out at 11 µM and the kinetic solubility at 2 h came to 11 µM (≈ 4.38 µg/mL).

With `Cc1ccc(-c2nnc(N[C@H]3[C@@H]4CC[C@H]3COC4)c3cnccc23)c(O)c1F` [Compound 15A, 6-(4-(((1R,5S,8s)-3-oxabicyclo[3.2.1]octan-8-yl)amino)pyrido[3,4-d]pyridazin-1-yl)-2-fluoro-3-methylphenol], the half-life in series [1] is over 480 min. At human NLRP3, this molecule showed an IC50 of 0.34 µM. Further, in series [2], the Kpu,u stood at 0.45 and the Kp at 24 h is 0.41. The half-life in series [3] came to 29 min. Moreover, in series [4], the “Sol (PBS)” value is over 300 µM and the solubility (kinetic) at 2 h was over 300 µM.

Source of the values: patent publication US20250257077A1, “BRIDGED BICYCLIC HETEROCYCLOALKYL PYRIDO-[3,4-d]PYRIDAZINE AMINE DERIVATIVES USEFUL AS NLRP3 INHIBITORS” (Ventus Therapeutics U.S., Inc., priority 2022, published 2025).
